The record followed here is ChEMBL document CHEMBL1201862, “PubChem BioAssay data set” (2004).

Common to all, as to assay type: functional
Experiment [1] addresses T1, High affinity choline transporter 1 (Homo sapiens, UniProt Q9GZV3).
T1 sequence (Q9GZV3 whole entry): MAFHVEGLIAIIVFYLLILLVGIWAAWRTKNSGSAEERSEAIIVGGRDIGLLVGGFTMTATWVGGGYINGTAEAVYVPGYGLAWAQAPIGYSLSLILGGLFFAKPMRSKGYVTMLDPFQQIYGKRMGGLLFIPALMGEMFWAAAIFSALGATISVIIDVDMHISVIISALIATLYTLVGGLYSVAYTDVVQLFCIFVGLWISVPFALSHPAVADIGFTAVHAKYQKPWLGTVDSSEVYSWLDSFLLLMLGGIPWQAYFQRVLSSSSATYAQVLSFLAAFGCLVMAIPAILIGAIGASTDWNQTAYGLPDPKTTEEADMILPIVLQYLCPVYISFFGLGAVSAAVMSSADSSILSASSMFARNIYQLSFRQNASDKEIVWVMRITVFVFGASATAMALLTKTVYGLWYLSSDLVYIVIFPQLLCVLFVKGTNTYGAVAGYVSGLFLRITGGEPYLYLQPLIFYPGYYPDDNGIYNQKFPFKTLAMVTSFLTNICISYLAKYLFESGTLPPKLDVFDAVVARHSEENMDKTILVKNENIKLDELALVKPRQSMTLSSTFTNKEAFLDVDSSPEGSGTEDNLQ
The experiment can be described thus: human choline transporter potentiators, potency – cell-based, 10-point CRC, membrane potential dye, dose response (AID 602376).

Experiment [2] deals with T1, High affinity choline transporter 1. Put plainly: human choline transporter blockers, potency – cell-based, 5-point CRC, membrane potential dye, dose response (AID 504840).
For experiment [3] the target is unchanged. The experiment can be described thus: human choline transporter blockers, potency – cell-based, 10-point CRC, membrane potential dye, dose response (AID 588401).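 Note: membrane potential dye fluorescence of choline-evoked depolarization via CHT.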
Experiment [4] concerns the target Serine/threonine-protein kinase pim-1 (Homo sapiens, UniProt P11309).
For experiment [5], the target named is Tyrosine-protein kinase receptor TYRO3 (Homo sapiens, UniProt Q06418).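 Note: TYRO3 value obtained as one member of a kinome-wide profiling panel.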
Experiment [6] addresses Dual specificity mitogen-activated protein kinase kinase 1 (Homo sapiens, UniProt Q02750). The experiment can be described thus: Navigating the Kinome. Panel member name: MAP2K1.
The target in experiment [7] is Mitogen-activated protein kinase kinase kinase kinase 2 (Homo sapiens, UniProt Q12851).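 Note: measured as one member of a kinome-wide kinase panel, with MAP4K2 as the panel entry.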
Experiment [8] concerns the target Inhibitor of nuclear factor kappa-B kinase subunit epsilon (Homo sapiens, UniProt Q14164). Put plainly: Navigating the Kinome. Panel member name: IKBKE.
The target of experiment [9] is Glycogen synthase kinase-3 beta (Homo sapiens, UniProt P49841).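 Note: value comes from a broad kinome profiling panel, with GSK3B as the panel member.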
Experiment [10] addresses Cyclin-dependent kinase 8 (Homo sapiens, UniProt P49336). Put plainly: Navigating the Kinome. Panel member name: CDK8.
The target in experiment [11] is Mitogen-activated protein kinase 8 (Homo sapiens, UniProt P45983).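 Note: value comes from one member of a kinome-wide kinase profiling panel.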
The target in experiment [12] is Tyrosine-protein kinase BTK (Homo sapiens, UniProt Q06187).
The target of experiment [13] is Leucine-rich repeat serine/threonine-protein kinase 2 (Homo sapiens, UniProt Q5S007).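 Note: value from a broad kinome-wide panel profiling study in which LRRK2 was one of the kinases tested.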
Experiment [14] deals with Tyrosine-protein kinase Fyn (Homo sapiens, UniProt P06241).
The target in another experiment is Activated CDC42 kinase 1 (Homo sapiens, UniProt Q07912). The experiment can be described thus: Navigating the Kinome. Panel member name: ACK1.
The target of experiment [15] is Fibroblast growth factor receptor 1 (Homo sapiens, UniProt P11362).
Experiment [16] addresses Cyclin-dependent kinase 19 (Homo sapiens, UniProt Q9BWU1). The experiment can be described thus: Navigating the Kinome. Panel member name: CDC2L6.
For experiment [17], the target named is G protein-coupled receptor kinase 5 (Homo sapiens, UniProt P34947). The experiment can be described thus: Navigating the Kinome. Panel member name: GPRK5.
Experiment [18] has as its target Serine/threonine-protein kinase TAO1 (Homo sapiens, UniProt Q7L7X3).
The target of experiment [19] is Platelet-derived growth factor receptor beta (Homo sapiens, UniProt P09619).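 Note: value comes from a kinome panel, with PDGFRB tested as one panel member.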
Experiment [20] addresses Glycogen synthase kinase-3 alpha (Homo sapiens, UniProt P49840).
The target in experiment [21] is Dual specificity mitogen-activated protein kinase kinase 2 (Homo sapiens, UniProt P36507). The experiment can be described thus: Navigating the Kinome. Panel member name: MAP2K2.
Experiment [22] deals with Serine/threonine-protein kinase Nek2 (Homo sapiens, UniProt P51955).
Experiment [23] has as its target Serine/threonine-protein kinase Chk1 (Homo sapiens, UniProt O14757).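 Note: measured as one member of a kinome-wide kinase profiling panel.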
The target of experiment [24] is Vascular endothelial growth factor receptor 2 (Homo sapiens, UniProt P35968).
The target of experiment [25] is ALK tyrosine kinase receptor (Homo sapiens, UniProt Q9UM73).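 Note: ALK tested as one member of a kinase panel screen.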
Experiment [26] has as its target DNA dC->dU-editing enzyme APOBEC-3A (Homo sapiens, UniProt P31941). The experiment can be described thus: SAR analysis of small molecule inhibitors of APOBEC3A DNA Deaminase via a fluorescence-based single-stranded DNA deaminase assay. The following applies: read-out: IC50_Mean.
In experiment [27] the target is DNA dC->dU-editing enzyme APOBEC-3G (Homo sapiens, UniProt Q9HC16). Put plainly: inhibition of APOBEC3G ssDNA deamination – biochemical, fluorescence, single-stranded DNA substrate, SAR follow-up (AID 602136). The following applies: read-out: IC50_Mean.

The source made the active and inactive calls.

Sequence of Cyclin-dependent kinase 8 (P49336 whole entry): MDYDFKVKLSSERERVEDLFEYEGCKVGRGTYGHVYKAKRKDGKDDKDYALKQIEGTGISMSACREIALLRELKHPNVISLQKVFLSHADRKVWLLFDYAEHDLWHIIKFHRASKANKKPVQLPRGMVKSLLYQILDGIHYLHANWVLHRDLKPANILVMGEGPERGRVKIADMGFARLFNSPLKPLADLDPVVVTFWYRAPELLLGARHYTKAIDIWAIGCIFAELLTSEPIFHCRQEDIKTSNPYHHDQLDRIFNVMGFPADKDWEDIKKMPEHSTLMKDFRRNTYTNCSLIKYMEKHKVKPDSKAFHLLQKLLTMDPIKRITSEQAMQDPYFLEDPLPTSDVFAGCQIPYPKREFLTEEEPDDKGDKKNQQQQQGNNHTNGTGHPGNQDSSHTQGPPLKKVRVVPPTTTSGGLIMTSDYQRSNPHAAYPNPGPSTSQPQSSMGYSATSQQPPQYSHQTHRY
Sequence of Vascular endothelial growth factor receptor 2 (P35968 whole entry): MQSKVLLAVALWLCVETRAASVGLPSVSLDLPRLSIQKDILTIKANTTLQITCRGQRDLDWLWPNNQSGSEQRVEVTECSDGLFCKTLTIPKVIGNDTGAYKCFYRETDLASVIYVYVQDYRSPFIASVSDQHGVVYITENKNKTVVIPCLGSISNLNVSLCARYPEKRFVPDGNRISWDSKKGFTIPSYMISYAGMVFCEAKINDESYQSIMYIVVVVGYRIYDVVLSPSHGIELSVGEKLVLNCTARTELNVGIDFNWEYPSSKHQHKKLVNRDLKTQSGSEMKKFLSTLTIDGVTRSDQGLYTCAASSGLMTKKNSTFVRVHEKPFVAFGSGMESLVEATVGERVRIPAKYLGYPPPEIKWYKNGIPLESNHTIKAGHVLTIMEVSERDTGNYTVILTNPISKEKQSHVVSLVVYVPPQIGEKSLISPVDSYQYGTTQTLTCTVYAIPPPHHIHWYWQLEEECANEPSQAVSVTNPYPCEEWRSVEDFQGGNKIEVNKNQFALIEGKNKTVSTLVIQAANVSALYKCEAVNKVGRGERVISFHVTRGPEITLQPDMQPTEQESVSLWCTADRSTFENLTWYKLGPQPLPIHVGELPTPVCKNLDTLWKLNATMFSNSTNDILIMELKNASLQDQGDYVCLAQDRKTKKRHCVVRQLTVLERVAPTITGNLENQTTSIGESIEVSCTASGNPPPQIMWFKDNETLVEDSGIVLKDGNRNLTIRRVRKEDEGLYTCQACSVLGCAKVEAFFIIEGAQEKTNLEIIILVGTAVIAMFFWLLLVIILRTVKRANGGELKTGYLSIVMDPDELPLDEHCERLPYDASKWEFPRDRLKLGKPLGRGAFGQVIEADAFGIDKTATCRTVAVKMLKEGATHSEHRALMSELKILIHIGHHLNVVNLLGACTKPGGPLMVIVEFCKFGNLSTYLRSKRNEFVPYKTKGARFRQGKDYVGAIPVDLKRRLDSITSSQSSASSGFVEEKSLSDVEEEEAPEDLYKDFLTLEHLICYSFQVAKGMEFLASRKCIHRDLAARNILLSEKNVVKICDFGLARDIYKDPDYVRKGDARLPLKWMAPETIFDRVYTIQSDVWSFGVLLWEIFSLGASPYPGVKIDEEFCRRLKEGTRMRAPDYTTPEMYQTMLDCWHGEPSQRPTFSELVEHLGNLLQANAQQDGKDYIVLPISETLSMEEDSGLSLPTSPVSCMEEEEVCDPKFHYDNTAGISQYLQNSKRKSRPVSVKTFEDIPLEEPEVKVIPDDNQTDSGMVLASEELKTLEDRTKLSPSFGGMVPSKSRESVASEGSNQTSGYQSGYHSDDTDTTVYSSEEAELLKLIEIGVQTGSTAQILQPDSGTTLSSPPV
Sequence of Mitogen-activated protein kinase 8 (P45983 whole entry): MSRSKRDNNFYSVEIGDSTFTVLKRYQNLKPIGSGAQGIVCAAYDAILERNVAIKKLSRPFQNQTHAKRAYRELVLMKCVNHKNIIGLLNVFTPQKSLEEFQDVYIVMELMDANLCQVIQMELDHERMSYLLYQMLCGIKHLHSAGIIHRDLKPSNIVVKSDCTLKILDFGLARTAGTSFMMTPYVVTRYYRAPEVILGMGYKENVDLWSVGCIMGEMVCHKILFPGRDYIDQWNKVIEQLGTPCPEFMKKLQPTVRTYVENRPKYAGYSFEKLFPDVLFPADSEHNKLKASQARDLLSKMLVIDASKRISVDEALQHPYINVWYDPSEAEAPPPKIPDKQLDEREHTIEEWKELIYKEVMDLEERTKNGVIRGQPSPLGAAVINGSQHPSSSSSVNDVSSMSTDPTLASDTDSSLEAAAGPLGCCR
Sequence of Mitogen-activated protein kinase kinase kinase kinase 2 (Q12851 whole entry): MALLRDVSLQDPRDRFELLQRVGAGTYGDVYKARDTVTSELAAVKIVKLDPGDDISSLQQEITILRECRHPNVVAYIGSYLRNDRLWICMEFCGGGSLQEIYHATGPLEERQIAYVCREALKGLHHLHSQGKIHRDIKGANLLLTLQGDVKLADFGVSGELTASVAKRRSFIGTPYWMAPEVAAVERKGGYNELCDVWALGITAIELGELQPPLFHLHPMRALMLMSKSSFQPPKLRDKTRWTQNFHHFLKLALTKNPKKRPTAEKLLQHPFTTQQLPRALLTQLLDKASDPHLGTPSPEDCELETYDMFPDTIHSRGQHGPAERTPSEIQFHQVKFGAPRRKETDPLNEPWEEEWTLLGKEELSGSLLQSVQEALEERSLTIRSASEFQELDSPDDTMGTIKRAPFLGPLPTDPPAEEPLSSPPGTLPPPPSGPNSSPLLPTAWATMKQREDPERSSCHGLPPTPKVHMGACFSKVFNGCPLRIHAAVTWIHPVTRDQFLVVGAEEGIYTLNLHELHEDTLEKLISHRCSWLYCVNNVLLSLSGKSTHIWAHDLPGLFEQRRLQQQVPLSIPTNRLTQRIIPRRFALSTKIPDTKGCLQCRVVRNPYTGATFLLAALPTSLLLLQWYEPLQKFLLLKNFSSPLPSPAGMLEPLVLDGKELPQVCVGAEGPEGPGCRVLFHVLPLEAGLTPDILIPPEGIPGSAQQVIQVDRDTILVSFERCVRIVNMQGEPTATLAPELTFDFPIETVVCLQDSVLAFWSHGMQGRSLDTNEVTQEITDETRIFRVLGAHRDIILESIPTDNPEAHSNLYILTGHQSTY
Sequence of Serine/threonine-protein kinase pim-1 (P11309 whole entry): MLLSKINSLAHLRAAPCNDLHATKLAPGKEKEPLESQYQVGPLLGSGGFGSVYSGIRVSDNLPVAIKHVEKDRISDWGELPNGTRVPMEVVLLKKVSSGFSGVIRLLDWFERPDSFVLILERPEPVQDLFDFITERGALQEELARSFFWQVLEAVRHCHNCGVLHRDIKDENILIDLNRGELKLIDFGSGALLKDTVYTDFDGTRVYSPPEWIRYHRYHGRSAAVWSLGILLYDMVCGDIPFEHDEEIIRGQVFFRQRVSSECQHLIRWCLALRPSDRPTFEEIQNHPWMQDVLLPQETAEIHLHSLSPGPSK
Sequence of Dual specificity mitogen-activated protein kinase kinase 2 (P36507 whole entry): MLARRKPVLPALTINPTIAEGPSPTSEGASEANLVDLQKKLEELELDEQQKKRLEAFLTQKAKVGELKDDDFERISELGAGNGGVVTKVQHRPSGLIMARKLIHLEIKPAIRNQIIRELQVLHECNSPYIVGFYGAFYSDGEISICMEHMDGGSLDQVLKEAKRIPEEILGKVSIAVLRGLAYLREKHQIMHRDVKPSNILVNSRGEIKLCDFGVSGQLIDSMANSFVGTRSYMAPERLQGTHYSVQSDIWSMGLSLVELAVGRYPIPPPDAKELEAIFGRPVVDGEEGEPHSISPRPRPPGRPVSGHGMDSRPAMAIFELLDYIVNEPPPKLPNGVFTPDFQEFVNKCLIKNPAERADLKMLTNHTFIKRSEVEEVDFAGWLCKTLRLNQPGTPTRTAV
Sequence of Tyrosine-protein kinase BTK (Q06187 whole entry): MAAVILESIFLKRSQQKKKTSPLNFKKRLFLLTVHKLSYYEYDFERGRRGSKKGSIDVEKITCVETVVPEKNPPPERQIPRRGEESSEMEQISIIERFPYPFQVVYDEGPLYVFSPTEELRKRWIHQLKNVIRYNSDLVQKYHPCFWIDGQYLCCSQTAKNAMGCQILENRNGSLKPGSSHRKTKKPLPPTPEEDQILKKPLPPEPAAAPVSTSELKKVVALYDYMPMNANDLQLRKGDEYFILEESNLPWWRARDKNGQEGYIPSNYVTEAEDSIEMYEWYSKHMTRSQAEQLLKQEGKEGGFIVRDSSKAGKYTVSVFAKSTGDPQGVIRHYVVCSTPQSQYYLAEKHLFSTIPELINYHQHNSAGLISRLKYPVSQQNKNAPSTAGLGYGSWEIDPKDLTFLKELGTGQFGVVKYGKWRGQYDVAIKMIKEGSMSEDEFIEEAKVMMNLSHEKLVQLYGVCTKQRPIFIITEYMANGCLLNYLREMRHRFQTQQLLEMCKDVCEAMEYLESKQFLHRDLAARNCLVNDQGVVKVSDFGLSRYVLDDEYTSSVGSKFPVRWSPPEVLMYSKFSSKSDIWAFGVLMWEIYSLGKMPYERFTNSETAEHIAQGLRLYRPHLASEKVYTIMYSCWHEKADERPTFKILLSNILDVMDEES
Sequence of Tyrosine-protein kinase Fyn (P06241 whole entry): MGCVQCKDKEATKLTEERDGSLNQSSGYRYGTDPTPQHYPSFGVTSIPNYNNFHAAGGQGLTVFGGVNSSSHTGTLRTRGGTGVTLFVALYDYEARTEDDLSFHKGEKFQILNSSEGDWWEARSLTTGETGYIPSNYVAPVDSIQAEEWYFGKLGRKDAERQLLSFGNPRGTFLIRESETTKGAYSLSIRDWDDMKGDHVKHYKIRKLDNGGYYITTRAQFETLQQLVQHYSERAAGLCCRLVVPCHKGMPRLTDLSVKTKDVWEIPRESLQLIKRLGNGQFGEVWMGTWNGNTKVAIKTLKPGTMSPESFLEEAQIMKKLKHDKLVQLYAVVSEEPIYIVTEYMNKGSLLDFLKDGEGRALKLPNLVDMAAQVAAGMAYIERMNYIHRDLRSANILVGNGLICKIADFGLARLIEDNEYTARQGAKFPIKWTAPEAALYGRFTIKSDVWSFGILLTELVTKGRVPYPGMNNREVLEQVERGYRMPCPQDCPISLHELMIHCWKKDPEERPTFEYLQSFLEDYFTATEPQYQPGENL

Usually EC50 stands for the concentration at which the effect is half-maximal. As for `COc1ccc(-c2nnc(SC(C)C(=O)NCc3ccc4c(c3)OCO4)n2Cc2ccco2)cc1` (stereo not drawn), in experiment [1], the EC50 is 24.3 µM (active).
Take `Cc1cccc(NC(=O)c2[nH]nc([N+](=O)[O-])c2Br)c1C`: the IC50 in experiment [2] is 4.1 µM (active); in experiment [3], 1.41 µM (active).
As a reminder, the Ki is a measure of affinity in units of concentration, obtained from inhibition or displacement. With `O=c1[nH]n2ccccc2c1Br`, the Ki in experiment [4] was 3.98 µM (active); in experiment [5], 2.51 µM (active); in [6], 2.51 µM (active); in experiment [7], 2.51 µM (active); in experiment [8], 3.16 µM (active); in experiment [9], 3.16 µM (active). Also, the Ki in [10] is 3.98 µM (active); in experiment [11], 5.01 µM (active); in experiment [12], 5.01 µM (active); in experiment [13], 2.51 µM (active); in [14], 5.01 µM (active); at Activated CDC42 kinase 1 it was 3.98 µM (active). Moreover, the inhibition constant (Ki) in experiment [15] is 3.98 µM (active); in [16], 3.16 µM (active); in experiment [17] it was 3.98 µM (active); in experiment [18], > 6.31 µM (inactive); in [19] it was 2 µM (active); in [20], 3.98 µM (active). For the same molecule, the Ki in experiment [21] is 1.58 µM (active); in [22], 3.16 µM (active); in experiment [23], 0.631 µM (active); in [24] it was 2 µM (active); in experiment [25] it was 5.01 µM (active).
On to `COc1ccc(-c2nnc(SCC(=O)c3cccc(Br)c3)[nH]2)cc1`, for which the IC50 in experiment [26] and in experiment [27] was > 99 µM (inactive) in each case.
